The data set can be described thus: LC-MS/MS quantification of BAPN in plasma and brain. In kind it is in vivo, C57BL/6 mice. The following applies: BAPN 2 g/L in drinking water; concentration in plasma and brain after 1, 2, 4, 8 hours. The method, then:
Mass spectrometry. A high-performance liquid chromatography tandem mass spectrometry (LC-MS/MS) assay was developed to quantify BAPN and SR9009 in plasma and brain of C57BL/6 mice. Specifically, the blood and brain tissues were collected after 1, 2, 4, and 8 hours of the administration of BAPN (2 g/L in drinking water) or SR9009 (100 mg/kg body weight, i.p.). The plasma was generated using the standard centrifugation techniques, and the brain tissues were pulverized by cryogenic grinding with liquid nitrogen. The plasma and brain tissue samples were mixed with internal standards, deproteinized with MeOH, and processed into LC-MS/MS to test the concentration of BAPN or SR9009. The analysis was performed at the Mass Spectrometry Core in Research Resources Center of University of Illinois at Chicago.

Molecules are shown by their SMILES.

With `N#CCCN` [BAPN, β-aminopropionitrile], the “ability to cross the blood-brain barrier (BBB)” value is given as “showed an ability to cross the blood-brain barrier”.

These data come from patent US20250186396A1, “COMPOSITIONS AND METHODS FOR THE TREATMENT OF GLIOBLASTOMA WITH A DUAL TARGETING ANTI-TUMOR COMPOSITION” (Northwestern University, priority 2023, published 2025).
